Results taken from patent US10597387B2, “Methods to treat lymphoplasmacytic lymphoma” (Dana-Farber Cancer Institute, Inc., priority 2013, dated 2020).
pIC50: −log10 of the molar value. Where two headings read alike, the source gives them in different places.

Columns and labels:
BTK [1] = molecular target: T1, BTK (Homo sapiens (Human), UniProt Q06187); assay: Invitrogen Select Screening kinase assay; type: biochemical; details: in vitro
Source text: The in vitro activity of the compounds described herein in inhibiting TAK1, HCK, and other kinases were obtained using an Invitrogen Select Screening assay as known in the art. The IC50 values determined from this assay are shown below.

CK1g1 = CK1g1 (Homo sapiens (Human), UniProt Q9HCP0); assay: KiNativ kinase profiling; type: binding; details: Lys2, A375 cells, read-out: inhibition of kinase labeling
CDK7 = CDK7 (Homo sapiens (Human), UniProt P50613); assay: KiNativ kinase profiling; type: binding; details: Lys2, A375 cells, read-out: inhibition of kinase labeling
BLK = BLK (Homo sapiens (Human), UniProt P51451); assay: KiNativ kinase profiling; type: binding; details: Activation Loop, A375 cells, read-out: inhibition of kinase labeling
RSK1 domain1 = RSK1 domain1 (Homo sapiens (Human), UniProt Q15418); assay: KiNativ kinase profiling; type: binding; details: Lys2, A375 cells, read-out: inhibition of kinase labeling
CDK2 = CDK2 (Homo sapiens (Human), UniProt P24941); assay: KiNativ kinase profiling; type: binding; details: Lys2, A375 cells, read-out: inhibition of kinase labeling
PFTAIRE1 = PFTAIRE1 (Homo sapiens (Human), UniProt O94921); assay: KiNativ kinase profiling; type: binding; details: Lys1, A375 cells, read-out: inhibition of kinase labeling
MST3 = MST3 (Homo sapiens (Human), UniProt Q9Y6E0); assay: KiNativ kinase profiling; type: binding; details: Lys2, A375 cells, read-out: inhibition of kinase labeling
MST4, YSK1 = assay: KiNativ kinase profiling; type: binding, Homo sapiens; details: Lys2, 1 μM, A375 cells
PIK3CD = PIK3CD (Homo sapiens (Human), UniProt O00329); assay: KiNativ kinase profiling; type: binding; details: ATP, A375 cells, read-out: inhibition of kinase labeling
FRAP = FRAP (Homo sapiens (Human), UniProt P42345); assay: KiNativ kinase profiling; type: binding; details: ATP, A375 cells, read-out: inhibition of kinase labeling
FER = FER (Homo sapiens (Human), UniProt P16591); assay: KiNativ kinase profiling; type: binding; details: Lys1, A375 cells, read-out: inhibition of kinase labeling
CHK2 = CHK2 (Homo sapiens (Human), UniProt O96017); assay: KiNativ kinase profiling; type: binding; details: Lys1, A375 cells, read-out: inhibition of kinase labeling
LYN = LYN (Homo sapiens (Human), UniProt P07948); assay: KiNativ kinase profiling; type: binding; details: read-out: inhibition of kinase labeling
TEC = TEC (Homo sapiens (Human), UniProt P42680); assay: KiNativ kinase profiling; type: binding; details: Activation Loop, A375 cells, read-out: inhibition of kinase labeling
MAST3 = MAST3 (Homo sapiens (Human), UniProt O60307); assay: KiNativ kinase profiling; type: binding; details: Lys2, A375 cells, read-out: inhibition of kinase labeling
STLK5 = STLK5 (Homo sapiens (Human), UniProt Q7RTN6); assay: KiNativ kinase profiling; type: binding; details: Activation Loop, A375 cells, read-out: inhibition of kinase labeling
MARK1, MARK2 = assay: KiNativ kinase profiling; type: binding, Homo sapiens; details: Lys1, 1 μM, A375 cells
GSK3B = GSK3B (Homo sapiens (Human), UniProt P49841); assay: KiNativ kinase profiling; type: binding; details: Lys2, A375 cells, read-out: inhibition of kinase labeling
ACK = ACK (Homo sapiens (Human), UniProt Q07912); assay: KiNativ kinase profiling; type: binding; details: Lys1, A375 cells, read-out: inhibition of kinase labeling
p70S6K = p70S6K (Homo sapiens (Human), UniProt P23443); assay: KiNativ kinase profiling; type: binding; details: Lys2, A375 cells, read-out: inhibition of kinase labeling
PIP4K2C = PIP4K2C (Homo sapiens (Human), UniProt Q8TBX8); assay: KiNativ kinase profiling; type: binding; details: ATP, A375 cells, read-out: inhibition of kinase labeling
MARK2, MARK3 = assay: KiNativ kinase profiling; type: binding, Homo sapiens; details: Lys2, 1 μM, A375 cells
IKKe = IKKe (Homo sapiens (Human), UniProt Q14164); assay: KiNativ kinase profiling; type: binding; details: Lys1, A375 cells, read-out: inhibition of kinase labeling
ZAK = ZAK (Homo sapiens (Human), UniProt Q9NYL2); assay: KiNativ kinase profiling; type: binding
LCK = LCK (Homo sapiens (Human), UniProt P06239); assay: KiNativ kinase profiling; type: binding; details: Activation Loop, A375 cells, read-out: inhibition of kinase labeling
ATR = ATR (Homo sapiens (Human), UniProt Q13535); assay: KiNativ kinase profiling; type: binding; details: ATP, A375 cells, read-out: inhibition of kinase labeling
TAO2 = TAO2 (Homo sapiens (Human), UniProt Q9UL54); assay: KiNativ kinase profiling; type: binding; details: Lys2, A375 cells, read-out: inhibition of kinase labeling
NEK6, NEK7 = assay: KiNativ kinase profiling; type: binding, Homo sapiens; details: Lys2, 1 μM, A375 cells
RSK1 domain2 = RSK1 domain2 (Homo sapiens (Human), UniProt Q15418); assay: KiNativ kinase profiling; type: binding; details: Lys2, A375 cells, read-out: inhibition of kinase labeling
TLK2 = TLK2 (Homo sapiens (Human), UniProt Q86UE8); assay: KiNativ kinase profiling; type: binding; details: Lys2, A375 cells, read-out: inhibition of kinase labeling
NEK3 = NEK3 (Homo sapiens (Human), UniProt P51956); assay: KiNativ kinase profiling; type: binding; details: Activation Loop, A375 cells, read-out: inhibition of kinase labeling
BTK [2] = molecular target: T1, BTK; assay: KiNativ kinase profiling; type: binding; details: read-out: inhibition of kinase labeling
TAO1, TAO3 = assay: KiNativ kinase profiling; type: binding, Homo sapiens; details: Lys2, 1 μM, A375 cells
MASTL = MASTL (Homo sapiens (Human), UniProt Q96GX5); assay: KiNativ kinase profiling; type: binding; details: Lys1, A375 cells, read-out: inhibition of kinase labeling
CK1g2 = CK1g2 (Homo sapiens (Human), UniProt P78368); assay: KiNativ kinase profiling; type: binding; details: Lys2, A375 cells, read-out: inhibition of kinase labeling
AurB = AurB (Homo sapiens (Human), UniProt Q96GD4); assay: KiNativ kinase profiling; type: binding; details: Lys1, A375 cells, read-out: inhibition of kinase labeling
ROCK1, ROCK2 = assay: KiNativ kinase profiling; type: binding, Homo sapiens; details: Lys2, 1 μM, A375 cells
TLK1 = TLK1 (Homo sapiens (Human), UniProt Q9UKI8); assay: KiNativ kinase profiling; type: binding; details: Lys2, A375 cells, read-out: inhibition of kinase labeling
MAP2K4 = MAP2K4 (Homo sapiens (Human), UniProt P45985); assay: KiNativ kinase profiling; type: binding; details: Lys2, A375 cells, read-out: inhibition of kinase labeling

T1 sequence (Q06187 whole entry): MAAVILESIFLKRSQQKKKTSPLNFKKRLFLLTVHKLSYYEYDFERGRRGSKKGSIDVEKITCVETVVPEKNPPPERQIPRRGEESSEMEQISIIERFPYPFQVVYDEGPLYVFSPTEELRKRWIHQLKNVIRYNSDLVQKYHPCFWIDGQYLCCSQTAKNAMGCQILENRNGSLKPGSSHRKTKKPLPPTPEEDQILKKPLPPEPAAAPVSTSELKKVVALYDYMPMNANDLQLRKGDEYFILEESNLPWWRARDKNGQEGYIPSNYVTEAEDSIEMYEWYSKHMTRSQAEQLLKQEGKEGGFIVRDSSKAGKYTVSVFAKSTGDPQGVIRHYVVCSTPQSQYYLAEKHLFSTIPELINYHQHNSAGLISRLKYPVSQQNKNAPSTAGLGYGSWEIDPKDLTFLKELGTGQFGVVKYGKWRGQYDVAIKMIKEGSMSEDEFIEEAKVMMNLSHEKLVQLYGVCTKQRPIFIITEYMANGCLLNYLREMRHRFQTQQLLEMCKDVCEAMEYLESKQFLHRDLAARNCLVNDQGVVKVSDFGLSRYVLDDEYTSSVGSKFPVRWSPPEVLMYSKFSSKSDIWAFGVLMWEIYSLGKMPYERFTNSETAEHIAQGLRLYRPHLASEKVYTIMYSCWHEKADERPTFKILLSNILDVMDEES
Chain of LYN (P07948 whole entry): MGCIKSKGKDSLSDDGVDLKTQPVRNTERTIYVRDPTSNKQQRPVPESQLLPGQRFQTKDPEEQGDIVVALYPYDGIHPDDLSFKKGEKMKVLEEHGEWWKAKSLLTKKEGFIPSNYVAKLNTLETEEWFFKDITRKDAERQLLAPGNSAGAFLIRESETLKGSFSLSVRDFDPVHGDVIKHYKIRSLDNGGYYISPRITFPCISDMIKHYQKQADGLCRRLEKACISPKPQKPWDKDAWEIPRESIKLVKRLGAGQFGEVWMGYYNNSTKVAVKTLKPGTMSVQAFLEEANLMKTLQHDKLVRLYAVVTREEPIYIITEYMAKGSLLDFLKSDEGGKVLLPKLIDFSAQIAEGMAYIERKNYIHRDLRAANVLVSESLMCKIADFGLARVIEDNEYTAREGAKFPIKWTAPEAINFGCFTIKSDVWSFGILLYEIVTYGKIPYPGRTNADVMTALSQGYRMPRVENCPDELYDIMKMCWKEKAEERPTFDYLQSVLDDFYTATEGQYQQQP
Chain of ZAK (Q9NYL2 whole entry): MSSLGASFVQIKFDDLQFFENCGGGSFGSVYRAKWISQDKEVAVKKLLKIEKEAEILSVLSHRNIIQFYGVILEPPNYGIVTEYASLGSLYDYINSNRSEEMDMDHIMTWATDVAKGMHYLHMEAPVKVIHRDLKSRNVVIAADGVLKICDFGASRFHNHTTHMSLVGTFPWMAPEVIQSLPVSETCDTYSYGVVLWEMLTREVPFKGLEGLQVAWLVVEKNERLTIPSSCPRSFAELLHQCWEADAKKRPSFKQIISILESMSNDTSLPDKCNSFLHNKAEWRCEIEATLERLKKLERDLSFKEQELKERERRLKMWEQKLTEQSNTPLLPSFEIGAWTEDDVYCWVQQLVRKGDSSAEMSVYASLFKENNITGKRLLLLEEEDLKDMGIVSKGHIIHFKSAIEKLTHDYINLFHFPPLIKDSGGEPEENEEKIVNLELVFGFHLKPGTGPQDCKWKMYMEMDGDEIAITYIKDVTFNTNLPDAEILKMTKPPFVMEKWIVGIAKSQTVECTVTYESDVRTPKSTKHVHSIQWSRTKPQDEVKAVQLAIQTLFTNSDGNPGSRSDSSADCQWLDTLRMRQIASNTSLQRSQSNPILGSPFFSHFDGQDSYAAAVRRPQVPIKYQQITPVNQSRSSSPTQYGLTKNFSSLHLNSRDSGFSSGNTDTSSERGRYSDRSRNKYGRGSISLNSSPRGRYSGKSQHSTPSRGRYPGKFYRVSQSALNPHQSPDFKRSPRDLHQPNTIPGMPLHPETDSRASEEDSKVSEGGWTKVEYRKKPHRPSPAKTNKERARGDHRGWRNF
Chain of MST3 (Q9Y6E0 whole entry): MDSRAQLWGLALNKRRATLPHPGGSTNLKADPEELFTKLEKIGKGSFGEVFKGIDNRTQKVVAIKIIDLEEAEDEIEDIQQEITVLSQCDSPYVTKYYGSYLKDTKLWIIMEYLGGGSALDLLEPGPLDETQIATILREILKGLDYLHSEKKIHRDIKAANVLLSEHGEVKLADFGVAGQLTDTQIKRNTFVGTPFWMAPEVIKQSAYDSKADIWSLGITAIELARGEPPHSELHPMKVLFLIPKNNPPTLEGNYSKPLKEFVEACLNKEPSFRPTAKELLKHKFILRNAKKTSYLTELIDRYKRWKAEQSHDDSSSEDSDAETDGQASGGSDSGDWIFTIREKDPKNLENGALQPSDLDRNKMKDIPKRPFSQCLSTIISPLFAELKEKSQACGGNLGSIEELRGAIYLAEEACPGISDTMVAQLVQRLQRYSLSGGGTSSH
Chain of STLK5 (Q7RTN6 whole entry): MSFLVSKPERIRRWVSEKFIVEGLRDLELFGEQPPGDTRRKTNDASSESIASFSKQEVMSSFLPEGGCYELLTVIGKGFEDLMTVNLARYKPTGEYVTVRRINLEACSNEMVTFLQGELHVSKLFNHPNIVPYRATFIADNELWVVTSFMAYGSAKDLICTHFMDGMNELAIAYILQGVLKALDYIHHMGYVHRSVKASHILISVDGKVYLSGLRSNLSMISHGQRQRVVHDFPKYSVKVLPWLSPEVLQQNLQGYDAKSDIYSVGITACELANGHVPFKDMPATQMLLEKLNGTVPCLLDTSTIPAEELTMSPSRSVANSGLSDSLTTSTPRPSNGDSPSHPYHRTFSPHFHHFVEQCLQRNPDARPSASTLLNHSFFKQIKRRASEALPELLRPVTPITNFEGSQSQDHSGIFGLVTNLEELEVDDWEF
Chain of AurB (Q96GD4 whole entry): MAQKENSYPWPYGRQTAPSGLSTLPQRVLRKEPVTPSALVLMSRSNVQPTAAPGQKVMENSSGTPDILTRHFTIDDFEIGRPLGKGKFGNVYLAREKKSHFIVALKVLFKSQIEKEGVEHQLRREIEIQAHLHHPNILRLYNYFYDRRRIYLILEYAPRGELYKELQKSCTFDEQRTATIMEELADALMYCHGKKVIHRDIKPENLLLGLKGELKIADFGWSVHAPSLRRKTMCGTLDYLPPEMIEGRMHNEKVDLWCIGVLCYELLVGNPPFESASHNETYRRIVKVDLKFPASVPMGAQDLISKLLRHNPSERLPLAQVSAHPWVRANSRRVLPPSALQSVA
Chain of MASTL (Q96GX5 whole entry): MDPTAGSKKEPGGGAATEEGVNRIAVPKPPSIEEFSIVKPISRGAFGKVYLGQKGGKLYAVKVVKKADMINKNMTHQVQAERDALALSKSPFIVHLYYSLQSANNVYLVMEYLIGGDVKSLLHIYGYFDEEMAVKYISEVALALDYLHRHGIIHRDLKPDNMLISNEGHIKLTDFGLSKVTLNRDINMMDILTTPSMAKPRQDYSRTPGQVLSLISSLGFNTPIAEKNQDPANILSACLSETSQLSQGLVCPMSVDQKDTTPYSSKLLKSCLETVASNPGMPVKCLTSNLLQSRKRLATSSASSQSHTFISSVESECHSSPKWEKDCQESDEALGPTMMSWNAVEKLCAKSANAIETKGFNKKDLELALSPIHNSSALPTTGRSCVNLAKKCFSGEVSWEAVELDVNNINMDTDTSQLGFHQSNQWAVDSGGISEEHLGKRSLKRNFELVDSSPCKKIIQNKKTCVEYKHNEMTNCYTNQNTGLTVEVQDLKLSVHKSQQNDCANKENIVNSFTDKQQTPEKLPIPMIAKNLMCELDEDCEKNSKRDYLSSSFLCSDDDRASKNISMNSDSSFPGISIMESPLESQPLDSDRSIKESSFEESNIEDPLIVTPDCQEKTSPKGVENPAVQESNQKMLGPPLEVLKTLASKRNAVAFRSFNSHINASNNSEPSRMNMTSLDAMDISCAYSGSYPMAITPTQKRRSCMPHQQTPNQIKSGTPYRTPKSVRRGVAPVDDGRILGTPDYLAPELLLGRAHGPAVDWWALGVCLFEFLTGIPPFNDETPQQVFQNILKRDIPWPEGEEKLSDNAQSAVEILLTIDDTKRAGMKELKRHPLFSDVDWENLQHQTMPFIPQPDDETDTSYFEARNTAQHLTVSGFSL
Chain of FER (P16591 whole entry): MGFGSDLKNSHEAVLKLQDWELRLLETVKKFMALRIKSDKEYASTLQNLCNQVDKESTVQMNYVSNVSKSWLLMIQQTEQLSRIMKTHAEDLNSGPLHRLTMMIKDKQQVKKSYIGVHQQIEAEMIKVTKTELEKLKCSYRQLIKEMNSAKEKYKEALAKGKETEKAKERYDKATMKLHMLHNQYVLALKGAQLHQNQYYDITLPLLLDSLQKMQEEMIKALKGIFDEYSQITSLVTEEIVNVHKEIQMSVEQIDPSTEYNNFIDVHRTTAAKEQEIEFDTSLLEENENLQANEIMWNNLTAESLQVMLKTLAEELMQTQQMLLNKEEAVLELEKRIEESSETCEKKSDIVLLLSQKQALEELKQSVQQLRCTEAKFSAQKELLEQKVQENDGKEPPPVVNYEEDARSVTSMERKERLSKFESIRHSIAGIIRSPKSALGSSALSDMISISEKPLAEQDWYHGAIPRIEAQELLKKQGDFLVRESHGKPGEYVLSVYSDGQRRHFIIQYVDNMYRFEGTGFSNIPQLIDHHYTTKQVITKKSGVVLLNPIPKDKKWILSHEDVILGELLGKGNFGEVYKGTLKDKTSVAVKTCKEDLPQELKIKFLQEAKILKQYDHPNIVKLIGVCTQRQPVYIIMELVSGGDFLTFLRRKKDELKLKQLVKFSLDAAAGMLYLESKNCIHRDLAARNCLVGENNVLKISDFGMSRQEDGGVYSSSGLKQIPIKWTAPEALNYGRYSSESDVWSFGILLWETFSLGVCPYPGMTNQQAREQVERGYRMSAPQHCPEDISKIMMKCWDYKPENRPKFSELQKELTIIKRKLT

## Cc1ccc(C(=O)Nc2cccc(C(C)(C)C#N)c2)cc1NC(=O)c1cncc(-c2cccs2)c1 [I-6, N-(5-((3-(2-cyanopropan-2-yl)phenyl)carbamoyl)-2-methylphenyl)-5-(thiophen-2-yl)nicotinamide]
BTK [1]
  pIC50: 5.94
CK1g1
  inhibition at 1 µM: 14.4%
CDK7
  inhibition at 1 µM: -6.8%
BLK
  inhibition at 1 µM: 68.8%
RSK1 domain1
  inhibition at 1 µM: 33.3%
CDK2
  inhibition at 1 µM: 8.6%
PFTAIRE1
  inhibition at 1 µM: -31.3%
MST3
  inhibition at 1 µM: -0.4%
MST4, YSK1
  inhibition of kinase labeling: 22%
PIK3CD
  inhibition at 1 µM: -6.8%
FRAP
  inhibition at 1 µM: -8.8%
FER
  inhibition at 1 µM: -9.6%
CHK2
  inhibition at 1 µM: 4.7%
LYN; Activation Loop, A375 cells
  inhibition at 1 µM: 68.5%
LYN; Lys1, A375 cells
  inhibition at 1 µM: 87.6%
TEC
  inhibition at 1 µM: -28.9%
MAST3
  inhibition at 1 µM: 18.9%
STLK5
  inhibition at 1 µM: -17.8%
MARK1, MARK2
  inhibition of kinase labeling: −4.9%
GSK3B
  inhibition at 1 µM: 15.9%
ACK
  inhibition at 1 µM: -1.2%
p70S6K
  inhibition at 1 µM: 7.4%
PIP4K2C
  inhibition at 1 µM: 12.3%
MARK2, MARK3
  inhibition of kinase labeling: 17.2%
IKKe
  inhibition at 1 µM: 3.8%
ZAK; Lys1, 1 μM, A375 cells
  inhibition of kinase labeling: >95%
ZAK; Lys1, A375 cells, read-out: inhibition of kinase labeling
  inhibition at 1 µM: > 95%
LCK
  inhibition at 1 µM: 82.1%
ATR
  inhibition at 1 µM: 26.2%
TAO2
  inhibition at 1 µM: 33.4%
NEK6, NEK7
  inhibition of kinase labeling: −3.7%
RSK1 domain2
  inhibition at 1 µM: -22.9%
TLK2
  inhibition at 1 µM: -18.8%
NEK3
  inhibition at 1 µM: 10%
BTK [2]; Activation Loop, A375 cells
  inhibition at 1 µM: -12.5%
BTK [2]; Lys1, A375 cells
  inhibition at 1 µM: 7.8%
TAO1, TAO3
  inhibition of kinase labeling: 11.9%
MASTL
  inhibition at 1 µM: -3.7%
CK1g2
  inhibition at 1 µM: 10.8%
AurB
  inhibition at 1 µM: -94%
ROCK1, ROCK2
  inhibition of kinase labeling: 12.7%
TLK1
  inhibition at 1 µM: 3.9%
MAP2K4
  inhibition at 1 µM: -14.6%
